Assay results reported in PMC4203399 (Journal of Medicinal Chemistry, 2014).
“Also recorded” adds a separate entry of the source.

Experiments:
[1] = tested on: genotype 1b HCV subgenomic replicon in Huh-5-2 cells; type: cell-based, hepatitis C virus
recombinant NS5BCΔ21 1b = recombinant NS5BCΔ21 1b (Hepatitis C virus genotype 1b, UniProt O92972); assay: NS5B primer dependent elongation; type: biochemical; conditions: for inhibition at 50 µM: read-out: inhibition of NS5B RdRp activity, screen at 50 μM
Huh-5-2 cells [2] = assay: MTS assay of antimetabolic effect, Huh-5-2; type: cell-based; conditions: data not shown
Huh-5-2 cells [3] = assay: microscopic examination of cell morphology in the replicon assay; type: cell-based; conditions: 72 h of compound treatment

| Structure (SMILES) | assessment of anti-HCV activity in the replicon assay (in words) [1] | anti-NS5B activity (in words) (recombinant NS5BCΔ21 1b) | inhibition at 50 µM (recombinant NS5BCΔ21 1b) [%] | antimetabolic effect after dose–response curve analysis (Huh-5-2 cells [2]) | also measured |
| --- | --- | --- | --- | --- | --- |
| CN1c2c(C(=O)Nc3ccc(NS(C)(=O)=O)cc3)nn(-c3ccc(Br)cc3)c2-c2ccccc2S1(=O)=O [2e, 1-(4-Bromophenyl)-4-methyl-N-{4-[(methylsulfonyl)amino]phenyl}-1,4-dihydropyrazolo[4,3-c][1,2]benzothiazine-3-carboxamide 5,5-Dioxide] | selective anti-HCV activity without any antimetabolic effect | – | – | – | – |
| Cc1cccc(-n2nc(C(=O)Nc3ccc(NS(C)(=O)=O)cc3)c3c2-c2ccccc2S(=O)(=O)N3C)c1 [2g, 4-Methyl-1-(3-methylphenyl)-N-{4-[(methylsulfonyl)amino]phenyl}-1,4-dihydropyrazolo[4,3-c][1,2]benzothiazine-3-carboxamide 5,5-Dioxide] | selective anti-HCV activity without any antimetabolic effect | – | – | – | – |
| CN1c2c(NC(=O)c3ccc(NS(C)(=O)=O)cc3)nn(-c3cccc(F)c3)c2-c2ccccc2S1(=O)=O [compound 5, N-[1-(3-Fluorophenyl)-4-methyl-5,5-dioxido-1,4-dihydropyrazolo[4,3-c][1,2]benzothiazin-3-yl]-4-(methylsulfonyl)aminobenzamide] | – | inactive | – | – | – |
| CN1c2c(C(=O)Nc3ccccc3)nn(-c3cccc(F)c3)c2-c2ccccc2S1(=O)=O [compound 3, 1-(3-Fluorophenyl)-4-methyl-N-phenyl-1,4-dihydropyrazolo[4,3-c][1,2]benzothiazine-3-carboxamide 5,5-Dioxide] | false positives | inactive | – | – | – |
| CN1c2c(C(=O)Nc3ccc(NS(C)(=O)=O)cc3)nn(-c3cccc(C(F)(F)F)c3)c2-c2ccccc2S1(=O)=O [2l, 4-Methyl-N-{4-[(methylsulfonyl)amino]phenyl}-1-[3-(trifluoromethyl)phenyl]-1,4-dihydropyrazolo[4,3-c][1,2]benzothiazine-3-carboxamide 5,5-Dioxide] | selective anti-HCV activity without any antimetabolic effect | – | ≥ 50 | – | – |
| CN1c2c(C(=O)Nc3ccc(NS(C)(=O)=O)cc3)nn(-c3ccc(Cl)c(Cl)c3)c2-c2ccccc2S1(=O)=O [2p, 1-(3,4-Dichlorophenyl)-4-methyl-N-{4-[(methylsulfonyl)amino]phenyl}-1,4-dihydropyrazolo[4,3-c][1,2]benzothiazine-3-carboxamide 5,5-Dioxide] | – | – | ≥ 50 | displayed antimetabolic effect | – |
| CN1c2c(C(=O)Nc3ccc(NS(C)(=O)=O)cc3)nn(-c3ccccc3Br)c2-c2ccccc2S1(=O)=O [2f, 1-(2-Bromophenyl)-4-methyl-N-{4-[(methylsulfonyl)amino]phenyl}-1,4-dihydropyrazolo[4,3-c][1,2]benzothiazine-3-carboxamide 5,5-Dioxide] | false positives | – | – | – | – |
| CN1c2c(C(=O)Nc3ccc(NS(C)(=O)=O)cc3)nn(-c3cccc(Br)c3)c2-c2ccccc2S1(=O)=O [2d, 1-(3-Bromophenyl)-4-methyl-N-{4-[(methylsulfonyl)amino]phenyl}-1,4-dihydropyrazolo[4,3-c][1,2]benzothiazine-3-carboxamide 5,5-Dioxide] | selective anti-HCV activity without any antimetabolic effect | – | – | – | – |
| CN1c2c(C(=O)Nc3ccc(NS(C)(=O)=O)cc3)nn(-c3ccccc3C(F)(F)F)c2-c2ccccc2S1(=O)=O [2n, 4-Methyl-N-{4-[(methylsulfonyl)amino]phenyl}-1-[2-(trifluoromethyl)phenyl]-1,4-dihydropyrazolo[4,3-c][1,2]benzothiazine-3-carboxamide 5,5-Dioxide] | – | – | < 50 | – | – |
| Cc1ccccc1-n1nc(C(=O)Nc2ccc(NS(C)(=O)=O)cc2)c2c1-c1ccccc1S(=O)(=O)N2C [2i, 4-Methyl-1-(2-methylphenyl)-N-{4-[(methylsulfonyl)amino]phenyl}-1,4-dihydropyrazolo[4,3-c][1,2]benzothiazine-3-carboxamide 5,5-Dioxide] | – | – | – | displayed antimetabolic effect | – |
| Cc1ccc(-n2nc(C(=O)Nc3ccc(NS(C)(=O)=O)cc3)c3c2-c2ccccc2S(=O)(=O)N3C)cc1Cl [2r, 1-(3-Chloro-4-methylphenyl)-4-methyl-N-{4-[(methylsulfonyl)amino]phenyl}-1,4-dihydropyrazolo[4,3-c][1,2]benzothiazine-3-carboxamide 5,5-Dioxide] | – | – | ≥ 50 | displayed antimetabolic effect | – |
| CN1c2c(C(=O)Nc3ccc(NS(C)(=O)=O)cc3)nn(-c3ccccc3Cl)c2-c2ccccc2S1(=O)=O [2c, 1-(2-Chlorophenyl)-4-methyl-N-{4-[(methylsulfonyl)amino]phenyl}-1,4-dihydropyrazolo[4,3-c][1,2]benzothiazine-3-carboxamide 5,5-Dioxide] | – | – | – | displayed antimetabolic effect | – |
| Cc1ccc(-n2nc(C(=O)Nc3ccc(NS(C)(=O)=O)cc3)c3c2-c2ccccc2S(=O)(=O)N3C)cc1 [2h, 4-Methyl-1-(4-methylphenyl)-N-{4-[(methylsulfonyl)amino]phenyl}-1,4-dihydropyrazolo[4,3-c][1,2]benzothiazine-3-carboxamide 5,5-Dioxide] | selective anti-HCV activity without any antimetabolic effect | – | – | – | effect on cell morphology (microscopic analysis) (Huh-5-2 cells [3]): did not display any significant effects on cell morphology; also recorded: did not display any antimetabolic and cell morphology alteration effects |
| CN1c2c(C(=O)Nc3ccc(NS(C)(=O)=O)cc3)nn(-c3ccc(F)c(F)c3)c2-c2ccccc2S1(=O)=O [2o, 1-(3,4-Difluorophenyl)-4-methyl-N-{4-[(methylsulfonyl)amino]phenyl}-1,4-dihydropyrazolo[4,3-c][1,2]benzothiazine-3-carboxamide 5,5-Dioxide] | false positives | less active than compound 1 | ≥ 50 | – | – |
| CN1c2c(C(=O)Nc3ccc(OCC(N)=O)cc3)nn(-c3cccc(F)c3)c2-c2ccccc2S1(=O)=O [compound 4, N-[4-(Amino-2-oxoethoxy)phenyl]-1-(3-fluorophenyl)-4-methyl-1,4-dihydropyrazolo[4,3c][1,2]benzothiazine-3-carboxamide 5,5-Dioxide] | – | inactive | – | displayed antimetabolic effect | – |
| COc1cccc(-n2nc(C(=O)Nc3ccc(NS(C)(=O)=O)cc3)c3c2-c2ccccc2S(=O)(=O)N3C)c1 [2j, 1-(3-Methoxyphenyl)-4-methyl-N-{4-[(methylsulfonyl)amino]phenyl}-1,4-dihydropyrazolo[4,3-c][1,2]benzothiazine-3-carboxamide 5,5-Dioxide] | – | inactive | < 50 | – | – |
| Cc1ccc(-n2nc(C(=O)Nc3ccc(NS(C)(=O)=O)cc3)c3c2-c2ccccc2S(=O)(=O)N3C)cc1C [2q, 1-(3,4-Dimethylphenyl)-4-methyl-N-{4-[(methylsulfonyl)amino]phenyl}-1,4-dihydropyrazolo[4,3-c][1,2]benzothiazine-3-carboxamide 5,5-Dioxide] | – | – | < 50 | – | – |
| CN1c2c(C(=O)Nc3ccc(NS(C)(=O)=O)cc3)nn(-c3ccc(Cl)c(C(F)(F)F)c3)c2-c2ccccc2S1(=O)=O [2s, 1-[4-Chloro-3-(trifluoromethyl)phenyl]-4-methyl-N-{4-[(methylsulfonyl)amino]phenyl}-1,4-dihydropyrazolo[4,3-c][1,2]benzothiazine-3-carboxamide 5,5-Dioxide] | – | – | < 50 | displayed antimetabolic effect | – |
| CN1c2c(C(=O)Nc3ccc(NS(C)(=O)=O)cc3)n[nH]c2-c2ccccc2S1(=O)=O [2u, 4-Methyl-N-{4-[(Methylsulfonyl)amino]phenyl}-1,4-dihydropyrazolo[4,3-c][1,2]benzothiazine-3-carboxamide 5,5-Dioxide] | – | totally inactive | < 50 | – | – |
| COc1ccc(-n2nc(C(=O)Nc3ccc(NS(C)(=O)=O)cc3)c3c2-c2ccccc2S(=O)(=O)N3C)cc1 [2k, 1-(4-Methoxyphenyl)-4-methyl-N-{4-[(methylsulfonyl)amino]phenyl}-1,4-dihydropyrazolo[4,3-c][1,2]benzothiazine-3-carboxamide 5,5-Dioxide] | selective anti-HCV activity without any antimetabolic effect | inactive | < 50 | – | effect on cell morphology (microscopic analysis) (Huh-5-2 cells [3]): did not display any significant effects on cell morphology |
| CN1c2c(C(=O)Nc3ccc(NS(C)(=O)=O)cc3)nn(-c3ccc(C(F)(F)F)cc3)c2-c2ccccc2S1(=O)=O [2m, 4-Methyl-N-{4-[(methylsulfonyl)amino]phenyl}-1-[4-(trifluoromethyl)phenyl]-1,4-dihydropyrazolo[4,3-c][1,2]benzothiazine-3-carboxamide 5,5-Dioxide] | – | – | ≥ 50 | displayed antimetabolic effect | – |
